According to US20220323406A1, “METHODS AND COMPOSITIONS FOR DIFFERENTIATING STEM CELLS” (Massachusetts Institute of Technology, priority 2019, published 2022):

Assays:
[1] = tested on: Paneth cells in ENR+CD organoids; assay: Flow cytometry of 3D-cultured intestinal organoids, Paneth cells (lysozyme-positive, CD24-positive); format: cell-based, mouse
Source text: Flow cytometry analysis (3D culture). ISC-enriched organoids cultured in 3D Matrigel with ENRCV media were passaged to 24-well plate in 3D Matrigel with ENRCV. At day zero, media were replaced to ENRCD with or without indicated compounds, and media were replaced every other day. At day six, cells were washed with basal media, and then harvested from Matrigel by mechanical disruption in TrypLE Express (ThermoFisher, 12605010) to remove Matrigel and dissociate organoids to single cells. After vigorous pipetting and incubation at 37° C. for 20 min, dissociated organoids were strained through a 35 μm cell strainer into a tube (Falcon, 352235). […] Cell pellets were resuspended in FACS buffer (2% FBS in PBS), and then transferred to an ultra low-bind 96-well plate (Corning, 7007). Cells were stained with Zombie-violet viability dye (BioLegend, 423107) at 100× for viability staining and/or antibody staining solution. FITC-conjugated antibody for lysozyme (Dako, F0372) and APC-conjugated antibody for CD24 (BioLegend, 138505) were used at 100× dilution. Flow cytometry was performed using an LSR Fortessa (BD; Koch Institute Flow Cytometry Core at MIT). The data were analyzed using FlowJo v10 software.
The results of primary and secondary screening reflect a mixture of potential effects arising from small molecule treatment which may result in increases in total LYZ secretion. This includes contributions from enhanced Paneth cell differentiation, altered Paneth cell activity and changes in total cell number concurrent with differentiation. To better inform how the 6 compounds identified in the screen increased total secreted LYZ, and to isolate only those which enhance Paneth differentiation robustly, Applicants next utilized flow cytometry to measure the changes in Paneth cell representation within the treated organoids. […] Single live cells were selected by several gating strategies and Paneth cells were identified as lysozyme-high, CD24-mid, side scatter-high (SSC-high) (FIG. 27E). […] To evaluate whether the culture media supplements C and D may alter the effects of the 6 hits, Applicants also performed lysozyme assay in the canonical ENR culture condition in 3-D (because Paneth cells exist in an immature state within ENR, Applicants were unable to robustly quantify Paneth cell number via flow cytometry).
Flow cytometry. ISC-enriched organoids in 3D Matrigel culture were passaged to a 48-well plate and induced differentiation for 6 days by ENR+CD media containing DMSO or each drug indicated in the figures. DMSO- or drug-containing media were changed every other day. On day 6, cells were washed twice with basal media, then harvested from Matrigel by the mechanical disruption in TrypLE Express (Thermo, #12605010) to remove Matrigel and dissociate organoids to single cells. After vigorous pipetting and incubation at 37° C. for 15 min, the cell solution was diluted twice with basal media and centrifuged at 300 ref for 3 min. The cell pellet was resuspended in FACS buffer (PBS containing 2% FBS) and replaced into a 96-well Clear Round Bottom Ultra-Low Attachment Microplate (Corning, #7007). The cell solution was centrifuged again at 300 rcf for 3 min at 4° C. to pellet the cells. Cells were stained with Zombie-violet dye (BioLegend, #423113) at 100× for viability staining for 20 min at RT in the dark. After centrifugation for 3 min at 300 rcf, cells were fixed in fixation buffer (FACS buffer containing 1% formaldehyde (Thermo, #28906)) for 15 min on ice in the dark. Cells were centrifuged again for 3 min at 300 rcf and blocked with staining buffer (FACS buffer containing 0.5% Tween20 (Sigma, P2287)) for 15 min at RT in the dark. Pelleted cells by the centrifugation for 3 min at 300 rcf are stained with FITC-conjugated anti-lysozyme antibody (Dako, F0372) and APC-conjugated anti-CD24 antibody (Biolegend, #138505) at 100× for 45 min at RT in the dark.

[2] = Animal study: oral gavage every other day for two weeks, body weight; format: in vivo, mouse
Experimental: Following a similar protocol as previously reported for SINE treatment in the context of cancer (Arango et al., 2017; Azmi et al., 2013; Hing et al., 2016; Zheng et al., 2014), KPT-330 was administered at a dose 10 mg/kg via oral gavage every other day over a two-week span in C57BL/6 wild-type mice, and body weight was monitored for any clear toxicity. […] Given animal weight loss on the standard chemotherapeutic dosage regimen, and additional evidence that sustained dosage of SINEs adversely impacts T cell populations (Tyler et al., 2017), Applicants sought to explore dosing regimens well below 10 mg/kg, to see if a pro-Paneth phenotype may exist below potential toxicities. […] Applicants tracked animal weight every other day, and at day 14 collected the proximal and distal thirds of the small intestine for histological quantification of Paneth, stem, and goblet populations (FIG. 26A). […] Paneth cells were counted within well preserved crypts, with at minimum 30 crypts quantified per animal (representative images FIG. 30C) and then averaged to get mean Paneth cells per crypt in distal and proximal thirds of the small intestine. […] Applicants additionally quantified the abundance of Olfm4+ stem cells as well as PAS+ goblet cells within the same animals to ascertain whether the effect of SINE treatment was restricted to the Paneth cell compartment (representative images FIG. 30D,E). […]

[3] = 2-day treatment within 6-day ENR+CD differentiation, read at day 6

In the case of `O=C(/C=C\n1cnc(-c2cc(C(F)(F)F)cc(C(F)(F)F)c2)n1)NNc1cnccn1` [KPT-330], the “enrichment in mature Paneth cells, treatment day 0-2” value [1, 3] is reported as “greatest enrichment in mature Paneth cells”, the “enrichment in mature Paneth cells, treatment day 2-4” value [1, 3] is reported as “moderate enrichment” and the “enrichment in mature Paneth cells, treatment day 4-6 (by flow cytometry)” value [1, 3] is reported as “no different than untreated”. For the same compound, the “increase in mature Paneth cells at day 6 of differentiation” value ([1]; ENR+CD + KPT-330 vs control) was 2 fold, the “mature Paneth cell population within organoids” value ([1]; most potent dose from 2.5-D screening, ENR+CD 6 days, 3-D culture) was “significantly enhanced the mature Paneth cell population” and the body weight ([2]; 10 mg/kg oral gavage every other day) was “significant weight loss”. For the same compound, the body weight ([2]; 0.2, 0.05 and 0.01 mg/kg oral gavage every other day) was “no significant changes in animal weight at any dose”.
